# Experiments:
# [1] = system: plasma 5-HIAA (a PD marker of 5-HT synthesis); experiment: Part 2 MAD biomarker: plasma 5-HIAA change from Day 1; type: in vivo, human; conditions: Day 14
# Source text: (§1) Biomarkers were to be evaluated in Part 2 by measuring concentrations of serotonin (5-hydroxytryptamine [5-HT]) in serum and 5-hydroxyindoleacetic acid (5-HIAA) in plasma and urine. As well, the relationship of biomarkers to PK parameters was to be evaluated.
# (§2) The biomarker analysis was to be based on the Biomarker Population (all subjects with evaluable biomarker measurements at baseline [Day 1 predose] and at least one after dosing [Day 7 or Day 14]).
# (§3) Biomarker data were to be collected only in Part 2. The following biomarkers were to be analyzed: • Serum 5-HT • Plasma 5-HIAA • Urine 5-HIAA/24 hours (as measured, adjusted, estimated, and per gram creatinine)
# The a priori primary biomarker endpoint was to be the change in plasma 5-HIAA concentration on Day 14 from Day 1.
# Linear regression was to be performed using biomarker changes, absolute and relative (%), from Day 1, at predose on Day 7 or Day 14 versus AUC0-24, Cmax, and Cmin in corresponding study days. The slopes and corresponding 95% confidence intervals (CIs) were to be tabulated.
# Summary statistics (mean, standard deviation [SD], median, minimum [Min], and maximum [Max]) were to be tabulated for each biomarker, by Cohort, with absolute and relative (%) changes from Day 1 predose.
# The values were to be tabulated with P values testing whether the difference of changes was equal to 0.
# (§4) The biomarker portion of the study was conducted in Part 2 MAD using the Biomarker Population. The biomarkers evaluated were serum 5-HT and plasma 5-HIAA, as well as urine 5-HIAA/24 hours (as measured, adjusted, estimated, and per gram creatinine). Urinary 5-HIAA was determined by a validated (21 C.F.R. 58, GLP-compliant) method using liquid chromatographic separation and tandem mass spectrometry detection.
# The Biomarker Population consisted of all subjects with evaluable baseline (Day 1 predose) and at least one postdose (Day 7 or Day 14) biomarker measurements.
# Biomarker data were analyzed for each KAR5585 dose separately, for all KAR5585 doses pooled, and for all placebo subjects pooled. […]
# [2] = system: urine 5-HIAA/24 hours; experiment: Part 2 MAD biomarker: urine 5-HIAA/24 hours change from Day 1; type: in vivo, human
# Source text: as §1, §2, §3
# Linear regression was to be performed using biomarker changes, absolute and relative (%), from Day 1, at predose on Day 7 or Day 14 versus AUC0-24, Cmax, and Cmin in corresponding study days. The slopes and corresponding 95% confidence intervals (CIs) were to be tabulated. […]
# as §4, with “detection. […]” for “detection.”
# Biomarker data were analyzed for each KAR5585 dose separately, for all KAR5585 doses pooled, and for all placebo subjects pooled.
# Urine 5 HIAA/24 hour was analyzed in 4 different manners: as measured in the 24-hour collection and (in order to correct for any collection errors) adjusted for creatinine excretion, estimated by the expected creatinine excretion for the subject (as defined in and expressed per gram creatinine. Results were similar for each of the 4 manners and are presented in this report for measured urine. Tables and figures for adjusted, estimated, and per-gram creatinine results are presented in Section 14. […]
# [3] = clinical; conditions: human, plasma, oral, 100 mg
# Experimental: Food effect was to be evaluated in Part 1, Period 2.
# Part 2 (MAD): BID doses (separated by approximately 12 hours on Days 1 to 13) and a single AM dose on Day 14. One or more of the MAD Cohort could have been dosed once daily (QD).
# (§5) Pharmacokinetic data were to be summarized descriptively.
# [4] = Part 1 SAD plasma pharmacokinetics of KAR5585 and KAR5417 after a single oral dose of KAR5585 (fasting; fed food effect); conditions: for AUC0-inf Geometric Mean / AUC0-tau Geometric Mean / Cmax Geometric Mean: 400 mg KAR5585 single oral dose
# Experimental: Food effect was to be evaluated in Part 1, Period 2. Part 2 was permitted to begin before Part 1 was completed and, in each part, the data from each dose Cohort were to be reviewed for safety before the next dose Cohort was enrolled.
# Part 1 had 6 Cohorts of 12 subjects each (for a total of 72 subjects) and Part 2 had 4 Cohorts of 12 subjects each (for a total of 48 subjects). In Part 1, the 12 subjects in Cohort 3 (400 mg) were studied twice, once under fasting conditions (Period 1) and once under fed conditions (Period 2) for food-effect assessment.
# as §5
# [5] = 100 mg to 700 mg single dose, 7-fold increase in dose
# [6] = 700 mg to 2000 mg single dose, 2.86-fold increase in dose
# [7] = arithmetic mean, plasma KAR5417 after single oral 100 mg KAR5585, fasted, Cohort 1
# [8] = arithmetic mean, plasma KAR5417 after single oral 700 mg KAR5585, fasted, Cohort 4
# [9] = arithmetic mean, plasma KAR5417 after single oral 1200 mg KAR5585, fasted, Cohort 5
# [10] = geometric mean, plasma KAR5417 after single oral 200 mg KAR5585, fasted, Cohort 2
# [11] = geometric mean, plasma KAR5417 after single oral 400 mg KAR5585, fed, Cohort 3B
# [12] = geometric mean, plasma KAR5417 after single oral 1200 mg KAR5585, fasted, Cohort 5
# [13] = geometric mean, plasma KAR5417 after single oral 2000 mg KAR5585, fasted, Cohort 6
smiles,measurement,setting,value
"Nc1nc(O[C@H](c2ccc(Cl)cc2-c2ccccc2)C(F)(F)F)cc(N2CCC3(CC2)CN[C@H](C(=O)O)C3)n1 [KAR5417, (S)-8-(2-amino-6-((R)-1-(5-chloro-[1,1′-biphenyl]-2-yl)-2,2,2-trifluoroeth-oxy)pyrimidin-4-yl)-2,8-diazaspiro[4.5]decane-3-carboxylic acid]","correlation of absolute and relative changes from baseline in plasma 5-HIAA with AUC0-24, Cmax, C12 and AUC0-12",[1],significantly correlated
same,"correlation of change from baseline in measured urine 5-HIAA with AUC0-24, Cmax, C12 or AUC0-12",[2]; Day 7,no significant correlations
same,"correlation of change from baseline in measured urine 5-HIAA with AUC0-24, Cmax, C12 or AUC0-12",[2]; Day 14,significantly correlated
same,concentration at 24 h,[3],19.7 ng/mL
same,increase in mean Cmax,"[4]; 100 mg (Cohort 1) to 700 mg (Cohort 4), 7-fold increase in dose",7.27 fold
same,increase in mean AUC0-24,[4]; [5],6.3 fold
same,increase in mean AUC0-inf,[4]; [5],6.8 fold
same,exposure (AUC0-tau and AUC0-inf) under fed relative to fasting conditions,[4]; 400 mg KAR5585 single dose,approximately 2 fold
same,"increase in Cmax, fed relative to fasting",[4]; 400 mg KAR5585 single dose,1.8 fold
same,"increase in mean AUC0-inf, fed relative to fasting",[4]; 400 mg KAR5585 single dose,1.8 fold
same,peak exposure (Cmax) higher under fed relative to fasting conditions,[4]; 400 mg KAR5585 single dose,approximately 1.87 fold
same,peak mean concentrations higher under fed relative to fasting conditions,[4]; 400 mg KAR5585 single dose,approximately 177%
same,tmax,"[4]; 400 mg KAR5585 single dose, fasted",4 hour postdose
same,increase in mean Cmax,"[4]; 700 mg (Cohort 4) to 2000 mg (Cohort 6), 2.86-fold increase in dose",1.38 fold
same,increase in AUC0-24,[4]; [6],1.7 fold
same,increase in AUC0-inf,[4]; [6],1.81 fold
same,AUC0-inf Geometric Mean,[4]; Cohort 3A (Fasting),3280 ng·h/mL
same,AUC0-tau Geometric Mean,[4]; Cohort 3A (Fasting),3120 ng·h/mL
same,Cmax Geometric Mean,[4]; Cohort 3A (Fasting),444 ng/mL
same,Cmax Geometric LS Mean Ratio,"[4]; Cohort 3B (Fed) versus Cohort 3A (Fasting), 400 mg KAR5585",1.87
same,AUC0-inf Geometric Mean,[4]; Cohort 3B (Fed),6630 ng·h/mL
same,AUC0-tau Geometric Mean,[4]; Cohort 3B (Fed),6360 ng·h/mL
same,Cmax Geometric Mean,[4]; Cohort 3B (Fed),831 ng/mL
same,time by which all subjects had measurable concentrations,[4]; Part 1 SAD,≤ 0.25 hours postdose
same,plasma concentrations relative to plasma concentrations of KAR5585,"[4]; Part 1 SAD, fasting",approximately 10 fold
same,AUC0-12,[4]; [7],704 ng·h/mL
same,AUC0-∞,[4]; [7],886 ng·h/mL
same,t1/2,[4]; [7],4.67 h
same,AUC0-12,[4]; [8],4350 ng·h/mL
same,AUC0-24,[4]; [8],5310 ng·h/mL
same,AUC0-12,[4]; [9],5350 ng·h/mL
same,Cmax,[4]; [9],896 ng/mL
same,AUC0-12,"[4]; arithmetic mean, plasma KAR5417 after single oral 2000 mg KAR5585, fasted, Cohort 6",6910 ng·h/mL
same,AUC0-24,[4]; [10],940 ng·h/mL
same,t1/2,[4]; [10],5.29 h
same,AUC0-12,[4]; [11],4170 ng·h/mL
same,AUC0-24,[4]; [11],5370 ng·h/mL
same,AUC0-tau,[4]; [11],6360 ng·h/mL
same,AUC0-∞,[4]; [11],6630 ng·h/mL
same,Cmax,[4]; [11],831 ng/mL
same,t1/2,[4]; [11],19.8 h
same,AUC0-12,"[4]; geometric mean, plasma KAR5417 after single oral 700 mg KAR5585, fasted, Cohort 4",3050 ng·h/mL
same,AUC0-tau,[4]; [12],6580 ng·h/mL
same,AUC0-∞,[4]; [12],6880 ng·h/mL
same,Cmax,[4]; [12],764 ng/mL
same,t1/2,[4]; [12],14.0 h
same,AUC0-12,[4]; [13],6550 ng·h/mL
same,Cmax,[4]; [13],1030 ng/mL
same,t1/2,[4]; [13],22.1 h
same,tmax,"[4]; median, plasma KAR5417 after single oral 100 mg KAR5585, fasted, Cohort 1",4.00 h
same,tmax,"[4]; median, plasma KAR5417 after single oral 400 mg KAR5585, fed, Cohort 3B",4.00 h
same,tmax,"[4]; median, plasma KAR5417 after single oral 700 mg KAR5585, fasted, Cohort 4",4.00 h
same,time up to which concentrations remained above the LLOQ,"[4]; single 100 mg KAR5585, fasting",up to 12 hours
same,mean apparent terminal (elimination) half-life,[4]; single 100 mg dose of KAR5585,4.67 h
same,time up to which concentrations remained above the LLOQ,"[4]; single 200 mg KAR5585, fasting",≤ 24 h
same,time up to which concentrations remained above the LLOQ,"[4]; single 400 mg KAR5585, fasting",≤ 36 h
same,time up to which concentrations remained above the LLOQ,"[4]; single 700 mg KAR5585, fasting",≤ 48 h
same,time up to which concentrations remained above the LLOQ,"[4]; single 1200 mg KAR5585, fasting",≤ 48 h
same,time up to which concentrations remained above the LLOQ,"[4]; single 2000 mg KAR5585, fasting",≤ 72 h
same,elimination half-life,"[4]; single dose 400 mg KAR5585, Part 1 Cohort 3B",20.5 h

# Source: patent publication US20200237759A1, “DOSAGE REGIME AND METHOD FOR TREATING PULMONARY ARTERIAL HYPERTENSION” (Altavant Sciences GmbH, priority 2019, published 2020)
